Measurements as given in patent US20160274087A1, “SCREENING ASSAY FOR AGENTS THAT INFLUENCE BETA CELL NUMBER AND/OR PHENOTYPE” (VRIJE UNIVERSITEIT BRUSSEL, priority 2013, published 2016).

Experiments:
rat beta cells [1] = assay: Beta cell DNA synthesis/proliferation by EdU (and BrdU) incorporation, incl. LOPAC screen; format: cell-based; conditions: for effect on 6MP induced DNA-synthesis and increase in cell numbers: JSH-23 10 μM, Bay11-7085 5 μM
Method: (§1) On day 1, 9 and 15 of culture, total numbers of living beta cells per well were determined by semi-automatic cell count, after Hoechst 33342 (Ho) and propidium iodide (PI) staining. Numbers of living beta cells were obtained by subtracting the PI-positive cell numbers from the Ho-positive cell numbers, and correcting for the percent insulin-negative cells, as determined following insulin-immunofluorescence staining. They were expressed as percent of the numbers on day 1. Each condition was also evaluated for increases in the percentage of proliferating beta cells (incorporating the thymidine-analogue 5-ethynyl-2′-deoxyuridine, EdU; 100 μmol/l). To detect beta cells that underwent two successive cycles, cells were sequentially exposed to two different thymidine-analogs, first EdU from day 3 to 6, and then BrdU (100 μmol/l) from day 7 to 10, with a 24-hour label-free period in between. EdU-positive (EdU^+) nuclei were detected with the Click-iT Assay kit (Invitrogen), while BrdU-positive (BrdU^+) nuclei were identified with anti-BrdU antibody.
Freshly purified beta cells were cultured in control medium for 24 h prior to the addition of the LOPAC test compounds (day 1). The culture medium was refreshed on day 3 and the cells were then cultured further with 5-ethynyl-2′-deoxyuridine (EdU; 10 μM) up to day 6. Cell viability and percentage EdU incorporation were quantified after imaging and image analysis using the BD Pathway Bioimager, as described before (Assefa et al., 2014). To test the significance of compound effect on beta cell proliferation, average Z-score for each compound was calculated and a cut-off for potential positive hits was set at a Z-score of greater than three standard deviations. Thus, a compound is considered a hit only if it increases the percent EdU incorporation to above three standard deviation of the plate-averaged percent EdU incorporation.
(§2) Sorted beta cells were seeded in 384-well or 6-well plates coated with 804G matrix, and kept in culture for up to 15 days at 37° C. 5% CO2 using Ham F10 supplemented with 1 mM L-glutamine, 0.1 mg/ml streptomycin, 0.075 mg/ml penicillin, 50 μM of isobutyl-1-methylxanthine (IBMX) at 10 mM D-glucose with and without synthetic GCs (6 methyl-prednisolone (6MP), dexamethasone (DEX), GR-modulators (compound A (CPA), mifepristone (MIF), and NFκB inhibitors (JSH-23 en Bay11-7085). Total cell number and beta cell viability was evaluated after incubation with Hoechst 33342 and propidium iodide. All chemicals were from Sigma Life Sciences or Merck. Quantification of cell numbers and analysis of beta-cell viability was done using the Pathway Bioimager (BD Biosciences) and using IPlab and Attovision software for background subtraction as described prior (Assefa et al., 2014). Replicating beta cells were quantified after 24 or 72 hrs incubation with 5-ethynyl-2′-deoxyuridine (EdU, a thymidine analog) using the ClickIT EDU Alexa Fluor assay (Invitrogen). EdU-positive cells were expressed as percentage of total cell number.

[2] = test system: GR trans-repression and trans-activation targets, cell cycle genes and beta cell phenotype markers; assay: Q-PCR of mRNA levels in cultured beta cells; format: cell-based, rat; conditions: for effect on ICAM1 mRNA levels: NFkB-inhibitors, relative to vehicle control
rat beta cells [3] = assay: Number of living beta cells in culture (Hoechst 33342/propidium iodide whole-well imaging counts; expansion assay); format: cell-based; conditions: for Number of Living Cells on Day 15 (% of Day 1): control 101 ± 7; for concentration giving maximal inhibition / prevention of DEX-stimulated increase of beta cell numbers: with 0.01 μM DEX, d1 to d15
Method: Beta cells were FACS-purified from islet-cell enriched suspensions (Pipeleers et al., 1985) prepared from neonatal (2-3 days-old) and adolescent or adult (8 or 40-week-old, male) Wistar rats (Janvier Bioservices, France); their purity was, respectively 70-75% and over 90%. Sorted cells were counted in a hemocytometer, seeded (day 0) and cultured for up to 15 days in serum-free Ham's-F10 medium at 5, 10 or 20 mmol/l glucose, supplemented with 2 mmol/l L-glutamine, 50 μM 3-isobutyl-1-methylxanthine, 0.5% Albumax-I, penicillin (100 U/ml) and streptomycin (0.1 mg/ml). The 10 mmol/l glucose condition is known to maintain beta cell survival over 9-days (Ling et al., 1994; Ling and Pipeleers, 1994). Medium and cells were retrieved after selected culture periods and assayed for insulin content; data were expressed as a function of the number of living beta cells that was determined in parallel wells.
as §1
Absolute number of cells was determined by whole-well imaging using the BD-PathwayBioimager855 (BD-Biosciences). IPLab and AttoVision software packages (BD-Biosciences) were used for image background subtraction, segmentation and quantification.
Experimental procedures for isolation of beta cells from neonatal (2-3 days old) and adult (8 or 40 week old, male) Wistar rats (Janvier Bioservices, France) and analysis of their number, viability and proliferation activity in culture have been described before (Assefa et al., 2014). Sorted beta cells were seeded in 804G matrix-coated plates (designated as day 0) and the numbers and viability of seeded cells at the start of all experiments were determined on day 1 (24 h after seeding). The cells were cultured in control medium, which is a serum-free Ham's F10 medium supplemented with 2 mM L-glutamine, 50 μM 3-isobutyl-1-methylxanthine, 0.5% Albumax I, penicillin (100 U/ml), streptomycin (0.1 mg/ml) and, unless indicated otherwise, 10 mM glucose.
as §2, with “2014).” for “2014). Replicating beta cells were quantified after 24 or 72 hrs incubation with 5-ethynyl-2′-deoxyuridine (EdU, a thymidine analog) using the ClickIT EDU Alexa Fluor assay (Invitrogen). EdU-positive cells were expressed as percentage of total cell number.”

[4] = control medium + compound 1 μM, 15 days
[5] = 9 days culture, 1 μM 6MP, 1 μM MIF, 0.5 μM CPA, vehicle = 1.0

O=C(CO)[C@@H](O)[C@@H](O)[C@H](O)[C@H](O)CO [mannoheptulose]
baseline and GC-induced proliferation of beta cells (rat beta cells [1]; competitive inhibition of GK, data not shown): reduces

CC(C)(C)c1ccc(S(=O)(=O)/C=C/C#N)cc1 [Bay11-7085]
effect on 6MP induced DNA-synthesis and increase in cell numbers (rat beta cells [1]): does not inhibit | effect on ICAM1 mRNA levels [2]: suppressing

COC(=O)C1=C(C)NC(C)=C([N+](=O)[O-])C1c1ccccc1C(F)(F)F (racemic) [(±)-Bay K 8644]
hit status in LOPAC screen based on Z-scores (rat beta cells [1]; 1 μM, adult rat beta cells): potential inducers of beta cell proliferation

C[C@]12CCC(=O)C=C1CC[C@@H]1[C@@H]2[C@@H](O)C[C@]2(C=O)[C@@H](C(=O)CO)CC[C@@H]12 [Aldosterone, aldosterone]
Number of Living Cells on Day 15 (% of Day 1) (rat beta cells [3]; control medium + compound 0.1 μM, 15 days): 112 ± 5 % of Day 1

Cc1ccc(NCCCc2ccccc2)c(N)c1 [JSH-23]
effect on 6MP induced DNA-synthesis and increase in cell numbers (rat beta cells [1]): does not inhibit | effect on ICAM1 mRNA levels [2]: suppressing

CC(=O)S[C@@H]1CC2=CC(=O)CC[C@]2(C)[C@H]2CC[C@@]3(C)[C@@H](CC[C@@]34CCC(=O)O4)[C@H]12 [Spironolactone, spironolactone]
Number of Living Cells on Day 15 (% of Day 1) (rat beta cells [3]; [4]): 105 ± 5 % of Day 1

CNCC(Cl)c1ccc(OC(C)=O)cc1.Cl (stereo not drawn) [CPA]
change of beta cell numbers between day 1 and 15 (rat beta cells [3]; 6MP 1 μM, DEX 0.01 μM, CPA 0.5 μM): no change of beta cell numbers | concentration giving maximal inhibition / prevention of DEX-stimulated increase of beta cell numbers (rat beta cells [3]): 0.5 µM | CDK4 mRNA level (ΔΔCt values relative to basal vehicle control) [2, 5]: 1.1 ± 0.2 | CXCL11 mRNA level (ΔΔCt values relative to basal vehicle control) [2, 5]: 1.1 ± 0.3 | Cyclin B1 mRNA level (ΔΔCt values relative to basal vehicle control) [2, 5]: 0.8 ± 0.4 | Cyclin B2 mRNA level (ΔΔCt values relative to basal vehicle control) [2, 5]: 0.5 ± 0.1^2 | Cyclin E1 mRNA level (ΔΔCt values relative to basal vehicle control) [2, 5]: 1.0 ± 0.1 | CyclinD1 mRNA level (ΔΔCt values relative to basal vehicle control) [2, 5]: 0.7 ± 0.1^1 | DLK1 mRNA level (ΔΔCt values relative to basal vehicle control) [2, 5]: 1.4 ± 0.4 | FKBP4 mRNA level (ΔΔCt values relative to basal vehicle control) [2, 5]: 0.9 ± 0.2 | FKBP5 mRNA level (ΔΔCt values relative to basal vehicle control) [2, 5]: 1.3 ± 0.1 | GDF11 mRNA level (ΔΔCt values relative to basal vehicle control) [2, 5]: 0.7 ± 0.1 | ICAM1 mRNA level (ΔΔCt values relative to basal vehicle control) [2, 5]: 0.3 ± 0.1^3 | MKP1 mRNA level (ΔΔCt values relative to basal vehicle control) [2, 5]: 2.7 ± 1.1 | MafA mRNA level (ΔΔCt values relative to basal vehicle control) [2, 5]: 0.4 ± 0.1^3 | MafB mRNA level (ΔΔCt values relative to basal vehicle control) [2, 5]: 1.4 ± 0.5 | NNAT mRNA level (ΔΔCt values relative to basal vehicle control) [2, 5]: 0.6 ± 0.1 | NPY mRNA level (ΔΔCt values relative to basal vehicle control) [2, 5]: 1.1 ± 0.3 | NR3C1 mRNA level (ΔΔCt values relative to basal vehicle control) [2, 5]: 1.0 ± 0.1 | Pdx1 mRNA level (ΔΔCt values relative to basal vehicle control) [2, 5]: 0.8 ± 0.1 | TRH mRNA level (ΔΔCt values relative to basal vehicle control) [2, 5]: 1.2 ± 0.6

CC#C[C@]1(O)CC[C@H]2[C@@H]3CCC4=CC(=O)CCC4=C3[C@@H](c3ccc(N(C)C)cc3)C[C@@]21C [MIF, mifepristone]
effect on 6MP/DEX-stimulated increase of cell numbers (rat beta cells [3]; MIF 1 μM): inhibited | Number of Living Cells on Day 15 (% of Day 1) (rat beta cells [3]; [4]): 104 ± 5 % of Day 1 | concentration giving maximal inhibition / prevention of DEX-stimulated increase of beta cell numbers (rat beta cells [3]): 0.1 µM | CDK4 mRNA level (ΔΔCt values relative to basal vehicle control) [2, 5]: 1.3 ± 0.2 | CXCL11 mRNA level (ΔΔCt values relative to basal vehicle control) [2, 5]: 1.5 ± 0.6 | Cyclin B1 mRNA level (ΔΔCt values relative to basal vehicle control) [2, 5]: 1.0 ± 0.3 | Cyclin B2 mRNA level (ΔΔCt values relative to basal vehicle control) [2, 5]: 0.6 ± 0.1^1 | CyclinD1 mRNA level (ΔΔCt values relative to basal vehicle control) [2, 5]: 1.0 ± 0.1 | DLK1 mRNA level (ΔΔCt values relative to basal vehicle control) [2, 5]: 0.9 ± 0.2 | FKBP4 mRNA level (ΔΔCt values relative to basal vehicle control) [2, 5]: 0.7 ± 0.2 | FKBP5 mRNA level (ΔΔCt values relative to basal vehicle control) [2, 5]: 0.7 ± 0.2 | MKP1 mRNA level (ΔΔCt values relative to basal vehicle control) [2, 5]: 1.3 ± 0.0 | MafA mRNA level (ΔΔCt values relative to basal vehicle control) [2, 5]: 1.1 ± 0.3 | MafB mRNA level (ΔΔCt values relative to basal vehicle control) [2, 5]: 0.6 ± 0.2 | NPY mRNA level (ΔΔCt values relative to basal vehicle control) [2, 5]: 0.8 ± 0.0 | NR3C1 mRNA level (ΔΔCt values relative to basal vehicle control) [2, 5]: 1.1 ± 0.1 | Pdx1 mRNA level (ΔΔCt values relative to basal vehicle control) [2, 5]: 1.1 ± 0.3

B1: GDF11: secretory factor added to beta cell culture (10 nM) (protein, UniProt O95390 299-407, looked up)
Growth/differentiation factor …: NLGLDCDEHSSESRCCRYPLTVDFEAFGWDWIIAPKRYKANYCSGQCEYMFMQKYPHTHLVQQANPRGSAGPCCTPTKMSPINMLYFNDKQQIIYGKIPGMVVDRCGCS
effect on cell numbers in combination with 6MP (rat beta cells [3]; 15 days, 6MP 1 μM, GDF11 10 nM, TRH 5 nM): suppressed proliferation | effect on cell numbers under basal conditions (rat beta cells [3]; 15 days, DLK1 0.5 μM, GDF11 10 nM, TRH 5 nM): modest increase of cell numbers
